From ChEMBL document CHEMBL1150795, “Sultam thiourea inhibition of West Nile virus” (Antimicrob Agents Chemother, 2007)
Active and inactive are the calls of the source. The calls are words filed in the database; no cut-off is given here.

Tests used:
West Nile virus [1] = assay: Antiviral activity against West Nile virus NY 1999 infected in african green monkey Vero cells assessed as reduction of virus yield relative to control; assay type: functional, organism-based
[2] = Cytotoxicity against african green monkey Vero cells after 48 hrs by MTS method; assay type: cell-based; conditions: chlorocebus sabaeus
[3] = tested on: Japanese encephalitis virus; assay: Antiviral activity against Japanese encephalitis virus SA14-2-8 infected in african green monkey Vero cells assessed as reduction of virus yield relative to control; assay type: functional, organism-based
[4] = tested on: Human immunodeficiency virus 1; assay: Antiviral activity against HIV1 in 293 cells assessed as reduction of viral replicon after 48 hrs by luciferase based reporter gene assay relative to control; assay type: functional, organism-based; conditions: HEK293
[5] = Cytotoxicity against african green monkey Vero cells by trypan blue exclusion assay; assay type: cell-based; conditions: chlorocebus sabaeus
West Nile virus [6] = assay: Antiviral activity against West Nile virus NY 1999 infected in african green monkey Vero cells assessed as reduction of viral E protein level by immunoblot method; assay type: functional, organism-based
Prospect Hill virus = assay: Antiviral activity against Prospect Hill Hantavirus; assay type: functional, organism-based; conditions: Orthohantavirus prospectense
West Nile virus [7] = assay: Antiviral activity against West Nile virus NY 1999 infected in african green monkey Vero cells assessed as reduction of viral E protein level by immunofluorescence method; assay type: functional, organism-based
West Nile virus [8] = assay: Antiviral activity against West Nile virus NY 1999 infected in african green monkey Vero cells assessed as reduction of virus yield after 5 days post infection at 23 uM relative to control; assay type: functional
Vero = assay: Cytotoxicity against african green monkey Vero cells at 23 uM after 48 hrs by MTS method; assay type: cell-based; conditions: chlorocebus sabaeus
West Nile virus [9] = assay: Antiviral activity against West Nile virus NY 1999 infected in african green monkey Vero cells assessed as reduction of virus yield administered 2 hrs postinfection; assay type: functional, organism-based
Human adenovirus 5 = assay: Antiviral activity against human adenovirus 5; assay type: functional, organism-based
West Nile virus [10] = assay: Antiviral activity against West Nile virus in BHK cells assessed as reduction of viral replicon after 48 hrs by luciferase based reporter gene assay relative to control; assay type: functional
[11] = Selectivity index, ratio of CC50 for african green monkey Vero cells to EC50 for West Nile virus NY 1999; assay type: toxicity, cell-based; conditions: read-out: Ratio CC50/EC50
[12] = tested on: Human immunodeficiency virus 1; assay: Antiviral activity against HIV1; assay type: functional, organism-based
West Nile virus [13] = assay: Antiviral activity against West Nile virus NY 1999 infected in african green monkey Vero cells assessed as reduction of virus yield after 5 days post infection at 2.3 uM relative to control; assay type: functional
West Nile virus [14] = assay: Antiviral activity against West Nile virus NY 1999 infected in african green monkey Vero cells assessed as reduction of viral RNA level by RT-PCR relative to control; assay type: functional

SMILES | EC50 (West Nile virus [1]) [µM] | CC50 at 48 h [2] [µM] | EC50 [3] [µM] | Activity [4] | CC50 [5] [µM] | Activity (West Nile virus [6]) | Activity (Prospect Hill virus) | Activity (West Nile virus [7]) | fold change (FC) (West Nile virus [8]) | Activity (Vero) | Activity (West Nile virus [9]) | Activity (Human adenovirus 5) | fold change (FC) (West Nile virus [10]) | selectivity ratio [11] | Activity [12] | fold change (FC) (West Nile virus [13]) | Activity (West Nile virus [14])
CC(C)N(C(=S)/N=C1\SC(C)S(=O)(=O)N1C)C(C)C (stereo unspecified) | 30 | 90 | 30 |  |  |  |  |  |  |  |  |  |  |  |  |  | 
O=S1(=O)CS/C(=N\C(=S)N(c2ccccc2)c2ccccc2)N1c1ccccc1 | 0.7 | > 70 | 7 | inactive | > 70 | Active | Active | Active | 100 | Non-toxic | Active | Active | >20 | > 100 | Active | 100 | >100
CC(C)N(C(=S)/N=C1\SCS(=O)(=O)N1c1ccccc1)C(C)C | 80 | > 80 | 8 |  |  |  |  |  |  |  |  |  |  |  |  |  | 
O=S1(=O)CS/C(=N\C(=S)N(Cc2ccccc2)Cc2ccccc2)N1c1ccccc1 | 22 | 65 | 65 |  |  |  |  |  |  |  |  |  |  |  |  |  | 
